Assay [1] concerns the target GABA-A receptor; anion channel. In words: In vitro inhibition of [35S]TBPS binding to GABA-A receptor of rat whole brain membranes. The format is cell membranes.
For assay [2], the system named is Mus musculus. In words: Intravenous hypnotic dose that caused a loss of righting reflex for a minimum period of 30s in 50% of treated mice determined by probit analysis. The format is functional.

SMILES strings stand for the structures.

The IC50 is the concentration that inhibits the measured activity by half.

`COc1cc(C)cc(OC)c1OC(=O)C(CCS(C)(=O)=O)N1C=CCCC1` (stereo not given) returned an IC50 in assay [1] of 6.2 µM. Moreover, the HD50 in assay [2] turned out to be 39.3 µM/kg.

`COc1cccc(OC)c1OC(=O)C(CCS(C)(=O)=O)N1CCOCC1` (stereo not given) displayed an HD50 in assay [2] of 99 µM/kg.

Regarding `COC(=O)CC(C(=O)Oc1c(OC)cccc1OC)N1CCCCCC1` (stereo not given), in assay [1], the half-maximal inhibitory concentration (IC50) was 4.2 µM. The molecule further returned an HD50 in assay [2] of 22.9 µM/kg.

In the case of `COC(=O)CC(C(=O)Oc1c(OC)cc(C)cc1OC)N1CCCCC1` (stereo not given), the IC50 in assay [1] worked out at 14.7 µM. In assay [2], the HD50 stood at 48 µM/kg.

As for `COC(=O)CC(C(=O)Oc1c(OC)cc(C)cc1OC)N1CCOCC1` (stereo not given), the HD50 in assay [2] was 46 µM/kg.

`COC(=O)CC(C(=O)Oc1c(OC)cccc1OC)N1CCCCC1` (stereo not given) yielded an IC50 in assay [1] of 11.7 µM. In assay [2], this molecule gave an HD50 of 26.4 µM/kg.

Turning to `COc1cc(C)cc(OC)c1OC(=O)C(CCSC)N1CCOCC1` (stereo not given), the HD50 in assay [2] worked out at 34.8 µM/kg.

In assay [2], `COCCN(CCOC)C(CCS(C)(=O)=O)C(=O)Oc1c(OC)cccc1OC` (stereo not given) displayed an HD50 greater than 106 µM/kg.

With `COCCN(CCOC)C(CCS(C)(=O)=O)C(=O)Oc1c(OC)cc(C)cc1OC` (stereo not given), the HD50 in assay [2] amounted to 77 µM/kg.

On to `COC(=O)CC(C(=O)Oc1c(OC)cc(C)cc1OC)N1CCCCCC1` (stereo not given), for which the HD50 in assay [2] came to 26 µM/kg.

For `COC(=O)CC(C(=O)Oc1c(OC)cccc1OC)N1CCOCC1` (stereo not given), the HD50 in assay [2] was 79 µM/kg.

`COc1cccc(OC)c1OC(=O)C(CCSC)N1CCCCC1` (stereo not given): the IC50 in assay [1] was 4 µM. In addition, in assay [2], the HD50 was less than 25 µM/kg.

With `COC(=O)CC(C(=O)Oc1c(OC)cccc1OC)N1CCCC1` (stereo not given), in assay [2], the HD50 came to 77 µM/kg.

In turn, `COC(=O)CC(C(=O)Oc1c(OC)cc(C)cc1OC)N1CCCC1` (stereo not given) registered an HD50 in assay [2] of 52 µM/kg.

As for `COc1cccc(OC)c1OC(=O)C(CC(=O)N1CCCCC1)N1CCCCC1` (stereo not given), the HD50 in assay [2] stood at 39 µM/kg.

`COc1cc(C)cc(OC)c1OC(=O)C(CC[S+](C)[O-])N1CCCC1` (stereo not given): the HD50 in assay [2] came out at 73 µM/kg.

In assay [2], `COc1cccc(OC)c1OC(=O)C(CC(=O)N1CCCC1)N1CCCCCC1` (stereo not given) returned an HD50 of 34 µM/kg.

Molecule `COc1cc(C)cc(OC)c1OC(=O)C(CC(=O)N1CCOCC1)N1CCOCC1` (stereo not given) had an HD50 in assay [2] greater than 218 µM/kg.

`COCCN(CCOC)C(CCSC)C(=O)Oc1c(OC)cc(C)cc1OC` (stereo not given): the IC50 in assay [1] was determined as 6.9 µM. Further, the HD50 in assay [2] is 22.6 µM/kg.

`COc1cccc(OC)c1OC(=O)C(CCSC)N1CCOCC1` (stereo not given) had an HD50 in assay [2] of 26.1 µM/kg.

As to `COc1cc(C)cc(OC)c1OC(=O)C(CCSC)N1CCCC1` (stereo not given), the concentration for half-maximal inhibition (IC50) in assay [1] worked out at 2.7 µM. Besides, the HD50 in assay [2] was determined as 31.4 µM/kg.

In the case of `COc1cc(C)cc(OC)c1OC(=O)C(CC(=O)N1CCCC1)N1CCCCCC1` (stereo not given), the HD50 in assay [2] worked out at 67 µM/kg.

As for `COc1cc(C)cc(OC)c1OC(=O)C(CCS(C)(=O)=O)N1CCOCC1` (stereo not given), the HD50 in assay [2] is 108 µM/kg.

Take `COc1cc(C)cc(OC)c1OC(=O)C(CC(=O)N1CCCCC1)N1CCCCC1` (stereo not given): the HD50 in assay [2] was found to be 37.5 µM/kg.

`CCN(CC)C(=O)CC(C(=O)Oc1c(OC)cc(C)cc1OC)N1CCOCC1` (stereo not given) displayed an HD50 in assay [2] of 38 µM/kg.

Turning to `COc1cccc(OC)c1OC(=O)C(CCSC)N1CCCC1` (stereo not given), in assay [2], the HD50 was found to be 40 µM/kg.

As to `COc1cc(C)cc(OC)c1OC(=O)C(CC(=O)N1CCCC1)N1CCCC1` (stereo not given), the HD50 in assay [2] was 81 µM/kg.

`COc1cc(C)cc(OC)c1OC(=O)C(CC[S+](C)[O-])N1CCOCC1` (stereo not given): in assay [2], the HD50 turned out to be 299 µM/kg.

The molecule `COc1cccc(OC)c1OC(=O)C(CCSC)N1CCCCCCC1` (stereo not given) yielded an HD50 in assay [2] of 35 µM/kg.

As to `COc1cccc(OC)c1OC(=O)C(CCSC)N1CCCCCC1` (stereo not given), the half-maximal inhibitory concentration (IC50) in assay [1] is 9.7 µM. In addition, in assay [2], the HD50 is 18.2 µM/kg.

The molecule `COc1cccc(OC)c1OC(=O)C(CC(=O)N1CCCC1)N1CCCC1` (stereo not given) yielded an HD50 in assay [2] of 102 µM/kg.

`CCN(CC)C(=O)CC(C(=O)Oc1c(OC)cccc1OC)N1CCOCC1` (stereo not given) yielded an HD50 in assay [2] of 117 µM/kg.

Molecule `COc1cccc(OC)c1OC(=O)C(CC(=O)N1CCOCC1)N1CCOCC1` (stereo not given) had an HD50 in assay [2] greater than 225 µM/kg.

Turning to `COCCN(CCOC)C(CC(=O)OC)C(=O)Oc1c(OC)cc(C)cc1OC` (stereo not given), the HD50 in assay [2] was 48 µM/kg.

As for `COCCN(CCOC)C(CC(=O)OC)C(=O)Oc1c(OC)cccc1OC` (stereo not given), in assay [2], the HD50 came to 48 µM/kg.

For `CC[C@H](C(=O)Oc1c(OC)cc(C)cc1OC)N(CCOC)CCOC` [ORG-24447], the HD50 in assay [2] was found to be 21.7 µM/kg.

In assay [2], `CC(C)c1cccc(C(C)C)c1O` [PROPOFOL] registered an HD50 of 68 µM/kg.
